In this experiment the test system is B6C3F1 mice, B16 melanoma ip, median survival T/C. The experiment is described as follows: NCI In Vivo Anticancer Drug Screen. Data for tumor model B16 Melanoma (intraperitoneal) in B6C3F1 mice. Conditions: endpoint: median survival time, higher = longer survival. The method, boiled down:
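Readout: survival or tumor size in treated mice relative to vehicle controls (T/C). Model uses transplantable tumors grown in mice.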

[1] abbreviates: dose: 25.0 mg/kg/injection, schedule: Q01DX009 (ip), vehicle: saline with Tween-80.
Where [2] appears, read: dose: 50.0 mg/kg/injection, schedule: Q01DX009 (ip), vehicle: saline with Tween-80.
Setting [3] is: dose: 12.5 mg/kg/injection, schedule: Q01DX009 (ip), vehicle: Klucel (hydroxypropylcellulose) (HPC).
Setting [4] is: dose: 25.0 mg/kg/injection, schedule: Q01DX009 (ip), vehicle: Klucel (hydroxypropylcellulose) (HPC).
Where [5] appears, read: dose: 50.0 mg/kg/injection, schedule: Q01DX009 (ip), vehicle: Klucel (hydroxypropylcellulose) (HPC).
Where [6] appears, read: dose: 10.0 mg/kg/injection, schedule: Q01DX009 (ip), vehicle: Klucel (hydroxypropylcellulose) (HPC).
Setting [7] is: dose: 100.0 mg/kg/injection, schedule: Q01DX009 (ip), vehicle: Klucel (hydroxypropylcellulose) (HPC).
Setting [8] is: dose: 200.0 mg/kg/injection, schedule: Q01DX009 (ip), vehicle: Klucel (hydroxypropylcellulose) (HPC).
The mark [9] stands for this setting: dose: 400.0 mg/kg/injection, schedule: Q01DX009 (ip), vehicle: Klucel (hydroxypropylcellulose) (HPC).
Setting [10] is: dose: 25.0 mg/kg/injection, schedule: Q01DX009 (ip), vehicle: saline.
Setting [11] is: dose: 50.0 mg/kg/injection, schedule: Q01DX009 (ip), vehicle: saline.
The mark [12] stands for this setting: dose: 100.0 mg/kg/injection, schedule: Q01DX009 (ip), vehicle: saline.
[13] abbreviates: dose: 200.0 mg/kg/injection, schedule: Q01DX009 (ip), vehicle: saline.
Where [14] appears, read: dose: 400.0 mg/kg/injection, schedule: Q01DX009 (ip), vehicle: saline.

“And” between values parts separate entries of the source, which are not always exact repeats. Identical values can stand only once. Inconclusive results and toxic doses are left out. Where a SMILES comes first, the peptide text is derived from it.

Consider `[Cl][Pt+2][Cl].[NH-]c1ccc([N+](=O)[O-])cc1[NH-]`, for which the T/C was 107 % of control (dose: 10.0 mg/kg/injection, schedule: Q01DX009 (ip), vehicle: saline with Tween-80); 105 % of control (dose: 20.0 mg/kg/injection, schedule: Q01DX009 (ip), vehicle: saline with Tween-80); 118 % of control (dose: 40.0 mg/kg/injection, schedule: Q01DX009 (ip), vehicle: saline with Tween-80); 116 % of control (dose: 80.0 mg/kg/injection, schedule: Q01DX009 (ip), vehicle: saline with Tween-80).

For the compound `CC(=O)NC(Cc1ccccc1)C(=O)NC(Cc1ccccc1)C(=O)O` (stereo not drawn) (Ac-Phe-Phe-OH; configuration not given here), the T/C under setting [1] is 107 % of control; the T/C under setting [2] is 100 % of control; the T/C (dose: 100.0 mg/kg/injection, schedule: Q01DX009 (ip), vehicle: saline with Tween-80) was 102 % of control; the T/C (dose: 200.0 mg/kg/injection, schedule: Q01DX009 (ip), vehicle: saline with Tween-80) is 104 % of control; the T/C (dose: 400.0 mg/kg/injection, schedule: Q01DX009 (ip), vehicle: saline with Tween-80) was 92 % of control.

For the compound `CCN1/C(=C/C(C)=C/c2sc3ccc4ccccc4c3[n+]2CC)Sc2ccc3ccccc3c21`, the T/C (dose: 0.02 mg/kg/injection, schedule: Q01DX009 (ip), vehicle: saline with Tween-80) is 95 % of control and the T/C (dose: 0.05 mg/kg/injection, schedule: Q01DX009 (ip), vehicle: saline with Tween-80) was 106 % of control.

As to `COc1ccc(Cl)[n+]([O-])n1`, the T/C was 93 % of control (dose: 3.12 mg/kg/injection, schedule: Q01DX009 (ip), vehicle: Klucel (hydroxypropylcellulose) (HPC)); 88 % of control (dose: 6.25 mg/kg/injection, schedule: Q01DX009 (ip), vehicle: Klucel (hydroxypropylcellulose) (HPC)); 94 % of control under setting [3]; 99 % of control under setting [4]; 93 % of control under setting [5].

In the case of `CC1([CH2][Hg][I])COCC([CH2][Hg][I])O1` (configuration not stated), the T/C was 100 % of control (dose: 5.0 mg/kg/injection, schedule: Q01DX009 (ip), vehicle: Klucel (hydroxypropylcellulose) (HPC)); 102 % of control under setting [6]; 86 % of control (dose: 20.0 mg/kg/injection, schedule: Q01DX009 (ip), vehicle: Klucel (hydroxypropylcellulose) (HPC)).

Regarding `O=c1[nH]cnc2[nH]ncc12`, the T/C is 103 % of control (dose: 12.5 mg/kg/injection, schedule: Q01DX009 (ip), vehicle: suspension in saline); 112 % of control (dose: 25.0 mg/kg/injection, schedule: Q01DX009 (ip), vehicle: suspension in saline); 97 % of control (dose: 50.0 mg/kg/injection, schedule: Q01DX009 (ip), vehicle: suspension in saline); 88 % of control (dose: 100.0 mg/kg/injection, schedule: Q01DX009 (ip), vehicle: suspension in saline).

Regarding `CCOC(=O)C(CC(C)C)NC(=O)C(N)Cc1ccc(N(CCCl)CCCl)cc1` (configuration not stated), the T/C is 113 % of control (dose: 1.25 mg/kg/injection, schedule: Q01DX009 (ip), vehicle: water); 113 % of control and 102 % of control (dose: 2.5 mg/kg/injection, schedule: Q01DX009 (ip), vehicle: water).

As to `O=c1[nH]cnc2n[nH]nc12`, the T/C runs as follows: under setting [3], 107 % of control; under setting [4], 97 % of control; under setting [5], 92 % of control; under setting [7], 90 % of control; under setting [8], 97 % of control; under setting [9], 90 % of control.

As to `CCCNc1ncnc2c1cnn2C`, the T/C runs as follows: (dose: 12.5 mg/kg/injection, schedule: Q01DX009 (ip), vehicle: saline) 91 % of control; under setting [10], 93 % of control.

Consider `CC(C)(C)OC(=O)NC(CC(=O)O)C(=O)O` (configuration not stated), for which the T/C is 102 % of control under setting [11], 90 % of control under setting [12] and 96 % of control under setting [13].

In the case of `CCC(N)C(=O)NCC(=O)NCC(=O)O` (configuration not stated) (HELM PEPTIDE1{[CCC(N)C(=O)[*:2]].G.G}$$$$V2.0), the T/C was 105 % of control under setting [12], 108 % of control under setting [13] and 109 % of control under setting [14].

On to `NC(CSCc1ccccc1)C(=O)Nc1ccc([N+](=O)[O-])cc1` (configuration not stated), for which the T/C reads like this: under setting [7], 115 % of control; under setting [8], 111 % of control; under setting [9], 116 % of control.

`CN1CCCN(C(c2ccccc2)c2ccc(Br)cc2)CC1` (configuration not stated): the T/C was 98 % of control (dose: 18.0 mg/kg/injection, schedule: Q01DX009 (ip), vehicle: saline) and 92 % of control (dose: 36.0 mg/kg/injection, schedule: Q01DX009 (ip), vehicle: saline).

In the case of `O=NN(CCF)C(=O)NCCO`, the T/C was 181 % of control (dose: 15.0 mg/kg/injection, schedule: Q01DX001 (ip), vehicle: saline); 221 % of control (dose: 30.0 mg/kg/injection, schedule: Q01DX001 (ip), vehicle: saline); 250 % of control (dose: 60.0 mg/kg/injection, schedule: Q01DX001 (ip), vehicle: saline).

With `NC1=NCN(C2OC(CO)C(O)C2O)C(=O)N1` (configuration not stated), the T/C reads like this: under setting [11], 108 % of control; under setting [12], 105 % of control.

For `c1ccc2c3c(ccc2c1)Sc1ccc2ccccc2c1N3`, the T/C is 112 % of control under setting [11], 112 % of control under setting [12], 112 % of control under setting [13] and 123 % of control under setting [14].

Regarding `CC(O)C(NC(=O)OC(C)(C)C)C(=O)O` (configuration not stated), the T/C under setting [10] is 86 % of control and 100 % of control; the T/C under setting [11] was 108 % of control and 106 % of control; the T/C under setting [12] is 108 % of control and 100 % of control; the T/C under setting [13] was 95 % of control.

With `O=C1c2ccccc2CCC1(Br)Br`, the T/C is, setting by setting: (dose: 2.5 mg/kg/injection, schedule: Q01DX009 (ip), vehicle: Klucel (hydroxypropylcellulose) (HPC)) 107 % of control; under setting [6], 90 % of control.

For the compound `CCN1C[C@]2(COC)[C@H](O)C[C@H](OC)[C@]34C1[C@H]([C@H](OC)[C@H]23)[C@]1(OC(C)=O)[C@H]2[C@@H](OC(=O)c3ccccc3)[C@](O)(C[C@H]24)[C@@H](OC)[C@@H]1O`, the T/C reads like this: (dose: 7.5 micrograms/kg/injection, schedule: Q01DX009 (ip), vehicle: saline) 118 % of control; (dose: 15.0 micrograms/kg/injection, schedule: Q01DX009 (ip), vehicle: saline) 115 % of control; (dose: 30.0 micrograms/kg/injection, schedule: Q01DX009 (ip), vehicle: saline) 99 % of control; (dose: 60.0 micrograms/kg/injection, schedule: Q01DX009 (ip), vehicle: saline) 122 % of control.

Regarding `Nc1nc(Cc2ccccc2)c(CCCNc2ccccc2)c(=O)[nH]1`, the T/C was 101 % of control (dose: 6.25 mg/kg/injection, schedule: Q01DX009 (ip), vehicle: saline with Tween-80); 109 % of control (dose: 12.5 mg/kg/injection, schedule: Q01DX009 (ip), vehicle: saline with Tween-80); 92 % of control under setting [1]; 86 % of control under setting [2].

Consider `O=C1CC2(C(=O)N1CN1CCOCC1)c1ccccc1-c1ccccc12`, for which the T/C by setting is: under setting [7], 93 % of control; under setting [8], 98 % of control; under setting [9], 93 % of control.

Take `S=C1CCCCN1`: the T/C is 107 % of control (dose: 25.0 mg/kg/injection, schedule: Q01DX009 (ip), vehicle: distilled water + alcohol); 98 % of control (dose: 50.0 mg/kg/injection, schedule: Q01DX009 (ip), vehicle: distilled water + alcohol); 107 % of control (dose: 100.0 mg/kg/injection, schedule: Q01DX009 (ip), vehicle: distilled water + alcohol); 101 % of control (dose: 200.0 mg/kg/injection, schedule: Q01DX009 (ip), vehicle: distilled water + alcohol).

As to `CNc1nc(NC)nc(NC)n1`, the T/C is, setting by setting: under setting [3], 91 % of control; under setting [4], 96 % of control; under setting [5], 100 % of control; under setting [7], 106 % of control.

On to `CC(=O)OC1=C(Br)CCc2ccccc21`, for which the T/C by setting is: (dose: 3.12 mg/kg/injection, schedule: Q01DX009 (ip), vehicle: DMSO) 88 % of control; (dose: 6.25 mg/kg/injection, schedule: Q01DX009 (ip), vehicle: DMSO) 87 % of control; (dose: 12.5 mg/kg/injection, schedule: Q01DX009 (ip), vehicle: DMSO) 88 % of control; (dose: 25.0 mg/kg/injection, schedule: Q01DX009 (ip), vehicle: DMSO) 91 % of control.

The values above are taken from PubChem BioAssay AID200 (DTP/NCI, 2004).
